Results taken from patent publication US20110021565A1, “PIPERIDINE DERIVATIVES AS NK3 ANTAGONISTS” (priority 2007, published 2011).
Read-outs that look alike come from different tables or passages of the source.

Biological target: T1, recombinant human NK3 receptor (Homo sapiens, UniProt P29371)
T1 construct: expressed in transfected cells; host or cells: HEK293 cells, transient expression; membrane preparation
T1 sequence (P29371 1-465): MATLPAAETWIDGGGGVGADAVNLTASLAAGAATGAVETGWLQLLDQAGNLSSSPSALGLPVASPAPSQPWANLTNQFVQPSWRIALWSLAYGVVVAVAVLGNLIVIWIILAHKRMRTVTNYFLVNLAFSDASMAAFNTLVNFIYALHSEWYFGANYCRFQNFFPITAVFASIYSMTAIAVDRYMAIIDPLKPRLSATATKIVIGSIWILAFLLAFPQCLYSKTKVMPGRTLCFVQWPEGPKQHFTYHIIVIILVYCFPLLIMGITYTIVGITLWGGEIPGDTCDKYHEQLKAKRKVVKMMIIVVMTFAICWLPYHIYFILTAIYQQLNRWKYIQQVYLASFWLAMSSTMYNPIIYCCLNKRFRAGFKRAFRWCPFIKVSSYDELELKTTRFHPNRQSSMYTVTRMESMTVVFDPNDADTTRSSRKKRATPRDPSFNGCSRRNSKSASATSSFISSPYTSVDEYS
Assay: [3H]SR142801 competition binding assay
Procedure, shortened: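 Ki derived by Cheng-Prusoff from Hill-fitted IC50 curves, duplicates, 10 μM SB222200 defining nonspecific binding. Radioligand used at KD concentration against compound at 0.0003-10 μM; transiently transfected HEK293 membranes, 5 μg/well, 75 min room temperature, Tris-HCl/MnCl2/phosphoramidon/BSA pH 7.4. Filter-bound counts read by scintillation.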

[1] = [3H]SR142801, membranes of HEK293 cells transiently expressing recombinant human NK3 receptor, read-out: hNK3 Ki
[2] = representative compounds, [3H]SR142801, HEK293 membranes, human NK3 receptor, read-out: Ki NK3 h

Row | SMILES | Ki [1] [nM] | Ki [2] [nM]
1 | CN(Cc1ccc(C(F)(F)F)c(F)c1)C(=O)C(F)(CCN1CCC(N(C)S(C)(=O)=O)CC1)c1ccc(Cl)c(Cl)c1 (stereo not shown) [Example 53, 2-(3,4-Dichloro-phenyl)-2-fluoro-N-(3-fluoro-4-trifluoromethyl-benzyl)-4-[4-(methanesulfonyl-methyl-amino)-piperidin-1-yl]-N-methyl-butyramide] | 18.3 | –
2 | CN(Cc1ccc(F)c(C(F)(F)F)c1)C(=O)C(F)(CCN1CCC(N(C)S(C)(=O)=O)CC1)c1ccc(Cl)c(Cl)c1 (stereo not shown) [Example 55, 2-(3,4-Dichloro-phenyl)-2-fluoro-N-(4-fluoro-3-trifluoromethyl-benzyl)-4-[4-(methanesulfonyl-methyl-amino)-piperidin-1-yl]-N-methyl-butyramide] | 23.4 | –
3 | CN(Cc1ccc(C(F)(F)F)c(F)c1)C(=O)C(F)(CCN1CCC(NS(C)(=O)=O)CC1)c1ccc(Cl)c(Cl)c1 (stereo not shown) [Example 61, 2-(3,4-Dichloro-phenyl)-2-fluoro-N-(3-fluoro-4-trifluoromethyl-benzyl)-4-(4-methanesulfonyl-amino-piperidin-1-yl)-N-methyl-butyramide] | 80 | –
4 | CN(Cc1ccc(Cl)cc1)C(=O)C(F)(CCN1CCC(NS(C)(=O)=O)CC1)c1ccc(Cl)c(Cl)c1 (stereo not shown) [Example 62, N-(4-Chloro-benzyl)-2-(3,4-dichloro-phenyl)-2-fluoro-4-(4-methanesulfonyl-amino-piperidin-1-yl)-N-methyl-butyramide] | 105 | –
5 | CN(Cc1ccc(Cl)c(C(F)(F)F)c1)C(=O)C(F)(CCN1CCC(NS(C)(=O)=O)CC1)c1ccc(Cl)c(Cl)c1 (stereo not shown) [Example 63, N-(4-Chloro-3-trifluoromethyl-benzyl)-2-(3,4-dichloro-phenyl)-2-fluoro-4-(4-methanesulfonyl-amino-piperidin-1-yl)-N-methyl-butyramide] | 117 | –
6 | CN(Cc1ccc(F)c(C(F)(F)F)c1)C(=O)C(F)(CCN1CCC(NS(C)(=O)=O)CC1)c1ccc(Cl)c(Cl)c1 (stereo not shown) [Example 64, 2-(3,4-Dichloro-phenyl)-2-fluoro-N-(4-fluoro-3-trifluoromethyl-benzyl)-4-(4-methanesulfonyl-amino-piperidin-1-yl)-N-methyl-butyramide] | 122 | –
7 | CN(Cc1cccc(Cl)c1)C(=O)C(F)(CCN1CCC(NS(C)(=O)=O)CC1)c1ccc(Cl)c(Cl)c1 (stereo not shown) [Example 65, N-(3-Chlorobenzyl)-2-(3,4-dichloro-phenyl)-2-fluoro-4-(4-methanesulfonyl-amino-piperidin-1-yl)-N-methyl-butyramide] | 307 | –
8 | CN(Cc1ccc(C(F)(F)F)cc1)C(=O)C(F)(CCN1CCC(NS(C)(=O)=O)CC1)c1ccc(Cl)c(Cl)c1 (stereo not shown) [Example 66, 2-(3,4-Dichloro-phenyl)-2-fluoro-4-(4-methanesulfonyl-amino-piperidin-1-yl)-N-methyl-N-(4-trifluoromethyl-benzyl)-butyramide] | 84.3 | –
9 | Cc1ccc(CN(C)C(=O)C(F)(CCN2CCC(NS(C)(=O)=O)CC2)c2ccc(Cl)c(Cl)c2)cc1 (stereo not shown) [Example 67, 2-(3,4-Dichloro-phenyl)-2-fluoro-4-(4-methanesulfonyl-amino-piperidin-1-yl)-N-methyl-N-(4-methyl-benzyl)-butyramide] | 323 | –
10 | CN(Cc1ccccc1Cl)C(=O)C(F)(CCN1CCC(NS(C)(=O)=O)CC1)c1ccc(Cl)c(Cl)c1 (stereo not shown) [Example 68, N-(2-Chloro-benzyl)-2-(3,4-dichloro-phenyl)-2-fluoro-4-(4-methanesulfonyl-amino-piperidin-1-yl)-N-methyl-butyramide] | 159 | –

The remaining lines, values ahead:

Row | Ki [1] [nM] | Ki [2] [nM] | SMILES
11 | 64.8 | – | CN(C1CCN(CCC(C)(C(=O)NCc2ccccc2)c2ccc(Cl)c(Cl)c2)CC1)S(C)(=O)=O (stereo not shown) [Example 52, N-Benzyl-2-(3,4-dichloro-phenyl)-4-[4-(methanesulfonyl-methyl-amino)-piperidin-1-yl]-2-methyl-butyramide]
12 | 24.5 | – | CN(Cc1ccc(Cl)c(C(F)(F)F)c1)C(=O)C(F)(CCN1CCC(N(C)S(C)(=O)=O)CC1)c1ccc(Cl)c(Cl)c1 (stereo not shown) [Example 54, N-(4-Chloro-3-trifluoromethyl-benzyl)-2-(3,4-dichloro-phenyl)-2-fluoro-4-[4-(methanesulfonyl-methyl-amino)-piperidin-1-yl]-N-methyl-butyramide]
13 | 22.8 | – | CN(Cc1ccc(Cl)c(Cl)c1)C(=O)C(F)(CCN1CCC(N(C)S(C)(=O)=O)CC1)c1ccc(Cl)c(Cl)c1 (stereo not shown) [Example 56, N-(3,4-Dichloro-benzyl)-2-(3,4-dichloro-phenyl)-2-fluoro-4-[4-(methanesulfonyl-methyl-amino)-piperidin-1-yl]-N-methyl-butyramide]
14 | 5.9 | 5.9 | CN(Cc1ccc(C(F)(F)F)c(F)c1)C(=O)C(C)(CCN1CCC(N(C2CC2)S(C)(=O)=O)CC1)c1ccc(Cl)c(Cl)c1 (stereo not shown) [Example 57, 4-[4-(Cyclopropyl-methanesulfonyl-amino)-piperidin-1-yl]-2-(3,4-dichloro-phenyl)-N-(3-fluoro-4-trifluoromethyl-benzyl)-2,N-dimethyl-butyramide]
15 | 3.6 | 3.6 | CN(Cc1ccc(Cl)c(C(F)(F)F)c1)C(=O)C(C)(CCN1CCC(N(C2CC2)S(C)(=O)=O)CC1)c1ccc(Cl)c(Cl)c1 (stereo not shown) [Example 58, N-(4-Chloro-3-trifluoromethyl-benzyl)-4-[4-(cyclopropyl-methanesulfonyl-amino)-piperidin-1-yl]-2-(3,4-dichloro-phenyl)-2,N-dimethyl-butyramide]
16 | 4.3 | 4.3 | CN(Cc1ccc(F)c(C(F)(F)F)c1)C(=O)C(C)(CCN1CCC(N(C2CC2)S(C)(=O)=O)CC1)c1ccc(Cl)c(Cl)c1 (stereo not shown) [Example 59, 4-[4-(Cyclopropyl-methanesulfonyl-amino)-piperidin-1-yl]-2-(3,4-dichloro-phenyl)-N-(4-fluoro-3-trifluoromethyl-benzyl)-2,N-dimethyl-butyramide]
17 | 2.6 | 2.6 | CN(Cc1ccc(Cl)c(Cl)c1)C(=O)C(C)(CCN1CCC(N(C2CC2)S(C)(=O)=O)CC1)c1ccc(Cl)c(Cl)c1 (stereo not shown) [Example 60, 4-[4-(Cyclopropyl-methanesulfonyl-amino)-piperidin-1-yl]-N-(3,4-dichloro-benzyl)-2-(3,4-dichloro-phenyl)-2,N-dimethyl-butyramide]
18 | 2.4 | 2.4 | CCN(C1CCN(CCC(C)(C(=O)N(C)Cc2ccc(C(F)(F)F)c(F)c2)c2ccc(Cl)c(Cl)c2)CC1)S(C)(=O)=O (stereo not shown) [Example 69, 2-(3,4-Dichloro-phenyl)-4-[4-(ethyl-methanesulfonyl-amino)-piperidin-1-yl]-N-(3-fluoro-4-trifluoromethyl-benzyl)-2,N-dimethyl-butyramide]
19 | 1.2 | 1.2 | CCN(C1CCN(CCC(C)(C(=O)N(C)Cc2ccc(Cl)c(Cl)c2)c2ccc(Cl)c(Cl)c2)CC1)S(C)(=O)=O (stereo not shown) [Example 70, N-(3,4-Dichloro-benzyl)-2-(3,4-dichloro-phenyl)-4-[4-(ethyl-methanesulfonyl-amino)-piperidin-1-yl]-2,N-dimethyl-butyramide]
20 | 2.8 | 2.8 | CCN(C1CCN(CCC(C)(C(=O)NCc2ccc(Cl)c(Cl)c2)c2ccc(Cl)c(Cl)c2)CC1)S(C)(=O)=O (stereo not shown) [Example 71, N-(3,4-Dichloro-benzyl)-2-(3,4-dichloro-phenyl)-4-[4-(ethyl-methanesulfonyl-amino)-piperidin-1-yl]-2-methyl-butyramide]
21 | 2.2 | 2.2 | CCN(C1CCN(CCC(C)(C(=O)N(C)Cc2ccc(Cl)cc2)c2ccc(Cl)c(Cl)c2)CC1)S(C)(=O)=O (stereo not shown) [Example 72, N-(4-Chloro-benzyl)-2-(3,4-dichloro-phenyl)-4-[4-(ethyl-methanesulfonyl-amino)-piperidin-1-yl]-2,N-dimethyl-butyramide]
22 | 1.5 | 1.5 | CCN(C1CCN(CCC(C)(C(=O)N(C)Cc2ccc(Cl)c(C(F)(F)F)c2)c2ccc(Cl)c(Cl)c2)CC1)S(C)(=O)=O (stereo not shown) [Example 73, N-(4-Chloro-3-trifluoromethyl-benzyl)-2-(3,4-dichloro-phenyl)-4-[4-(ethyl-methanesulfonyl-amino)-piperidin-1-yl]-2,N-dimethyl-butyramide]
23 | 1.3 | 1.3 | CCN(C1CCN(CCC(C)(C(=O)N(C)Cc2ccc(F)c(C(F)(F)F)c2)c2ccc(Cl)c(Cl)c2)CC1)S(C)(=O)=O (stereo not shown) [Example 74, 2-(3,4-Dichloro-phenyl)-4-[4-(ethyl-methanesulfonyl-amino)-piperidin-1-yl]-N-(4-fluoro-3-trifluoromethyl-benzyl)-2,N-dimethyl-butyramide]
24 | 3.9 | 3.9 | CCN(C1CCN(CCC(C)(C(=O)N(C)Cc2cccc(Cl)c2)c2ccc(Cl)c(Cl)c2)CC1)S(C)(=O)=O (stereo not shown) [Example 75, N-(3-Chloro-benzyl)-2-(3,4-dichloro-phenyl)-4-[4-(ethyl-methanesulfonyl-amino)-piperidin-1-yl]-2,N-dimethyl-butyramide]
25 | 1.7 | 1.7 | CCN(C1CCN(CCC(C)(C(=O)N(C)Cc2ccc(C(F)(F)F)cc2)c2ccc(Cl)c(Cl)c2)CC1)S(C)(=O)=O (stereo not shown) [Example 76, 2-(3,4-Dichloro-phenyl)-4-[4-(ethyl-methanesulfonyl-amino)-piperidin-1-yl]-2,N-dimethyl-N-(4-trifluoromethyl-benzyl)-butyramide]
